Data taken from US7053070B2, “Pyrido[2,3-d]pyrimidine-2,7-diamine kinase inhibitors” (Warner-Lambert Company, priority 2000, dated 2006).

Legend:
cdk1/cyclinB = cdk1/cyclinB (Homo sapiens, UniProt P06493); test: Cyclin dependent kinase 1 assay (cdk1/cyclinB), 32P incorporation, filter plate; type: biochemical; details: retinoblastoma substrate, 12 mM ATP, 25° C., 15 minutes; read-out: Inhibition of Cdks: IC50 Cdk1/B
Procedure: (§1) Cyclin Dependent Kinase 1 and 2 Assays (cdk1/cyclinB, cdk2/cyclinA, cdk2/cyclinE)
(§2) Enzyme assays for IC50 determinations and kinetic evaluation are performed in a 96-well filter plate (Millipore MADVN6550) in a total volume of 0.1 mL of 20 mM TRIS (tris[hydroxymethyl]aminomethane), at pH 7.4, 50 mM NaCl, 1 mM dithiothreitol, 10 mM MgCl2, […] containing 0.25 μCi of [^32P]ATP, 20 ng of enzyme (either cdk1/B, cdk2/A, or cdk2E), 1 μg retinoblastoma and appropriate dilutions of the particular invention compound. All components except the ATP are added to the wells, and the plate is placed on a plate mixer for 2 minutes. The reaction is begun by addition of [^32P]ATP, and the plate is incubated at 25° C. for 15 minutes. The reaction is terminated by addition of 0.1 mL of 20% TCA. The plate is kept at 4° C. for at least 1 hour to allow the substrate to precipitate. The wells are then washed 5 times with 0.2 mL of 10% TCA and ^32P incorporation determined with a beta plate counter (Wallac Inc., Gaithersburg, Md.).

cdk2/cyclinA = cdk2/cyclinA (Homo sapiens, UniProt P24941); test: Cyclin dependent kinase 2 assay (cdk2/cyclinA), 32P incorporation, filter plate; type: biochemical; details: retinoblastoma substrate, 12 mM ATP, 25° C., 15 minutes; read-out: Inhibition of Cdks: IC50 Cdk2/A
Procedure: as §1, §2

[1] = biological target: T1, FGF-1 (flg) receptor tyrosine kinase (FGFr) (Homo sapiens, UniProt P11362); test: FGF Receptor Tyrosine Kinase Assay; type: biochemical; details: glutamate-tyrosine co-polymer substrate; for inhibition at 50 µM: at 50 μM compound, read-out: Inhibition of Tyrosine Kinases: % Inhibition at 50 μM FGFr; for IC50: read-out: Inhibition of Tyrosine Kinases: IC50 in parenthesis FGFr
T1 construct: amplify a fragment of DNA that codes for the intracellular tyrosine kinase domain; made in house; host or cells: SF9 insect cells (baculovirus); crude cell lysate used
Source text: (§3) PDGF and FGF Receptor Tyrosine Kinase Assays
(§4) Full-length cDNAs for the mouse PDGF-β and human FGF-1 (flg) receptor tyrosine kinases are obtained from J. Escobedo and prepared as described in J. Biol. Chem. 1991; 262:1482-1487. PCR primers are designed to amplify a fragment of DNA that codes for the intracellular tyrosine kinase domain. The fragment is inserted into a baculovirus vector, cotransfected with AcMNPV DNA, and the recombinant virus isolated. SF9 insect cells are infected with the virus to overexpress the protein, and the cell lysate is used for the assay. Assays are performed in 96-well plates (100 μL/incubation/well), and conditions are optimized to measure the incorporation of ^32P from γ^32P-ATP into a glutamate-tyrosine co-polymer substrate. Briefly, to each well is added 82.5 μL of incubation buffer containing 25 mM Hepes (pH 7.0), 150 mM NaCl, 0.1% Triton X-100, 0.2 mM PMSF, 0.2 mM Na3VO4, 10 mM MnCl2, and 750 μg/mL of Poly (4:1) glutamate-tyrosine followed by 2.5 μL of inhibitor and 5 μL of enzyme lysate (7.5 μg/μL FGF-TK or 6.0 μg/μL PDGF-TK) to initiate the reaction. Following a 10-minute incubation at 25° C. […] of γ^32P-ATP (0.4 μCi plus 50 μM ATP) is added to each well, and samples are incubated for an additional 10 minutes at 25° C. The reaction is terminated by the addition of 100 μL of 30% trichloroacetic acid (TCA) containing 20 mM sodium pyrophosphate and precipitation of material onto glass fiber mats (Wallac). Filters are washed 3 times with 15% TCA containing 100 mM sodium pyrophosphate, and the radioactivity retained on the filters counted in a Wallac 1250 Betaplate reader. Nonspecific activity is defined as radioactivity retained on the filters following incubation of samples with buffer alone (no enzyme). Specific enzymatic activity (enzyme plus buffer) is defined as total activity minus nonspecific activity.

cdk2/cyclinE = cdk2/cyclinE (Homo sapiens, UniProt P24941); test: Cyclin dependent kinase 2 assay (cdk2/cyclinE), 32P incorporation, filter plate; type: biochemical; details: retinoblastoma substrate, 12 mM ATP, 25° C., 15 minutes; read-out: Inhibition of Cdks: IC50 Cdk2/E
Procedure: as §1, §2

cdk4/cyclinD = cdk4/cyclinD (Homo sapiens, UniProt P11802); test: Cyclin Dependent Kinase 4 (cdk-4) Assay, 32P incorporation, filter plate; type: biochemical; details: retinoblastoma substrate, 25 μM ATP, 25° C., 15 minutes; read-out: Inhibition of Cdks: IC50 Cdk4D
Procedure: Cyclin Dependent Kinase 4 (cdk-4) Assay
Enzyme assays for IC50 determinations and kinetic evaluation are performed in 96-well filter plates (Millipore MADVN6550). The total volume is 0.1 mL containing a final concentration of 20 mM TRIS (tris[hydroxymethyl]aminomethane), at pH 7.4, 50 mM NaCl, 1 mM dithiothreitol, 10 mM MgCl2, 25 μM ATP containing 0.25 μCi of [^32P]ATP, 20 ng of cdk4, 1 μg of retinoblastoma, and appropriate dilutions of a compound of the present invention. All components except the ATP are added to the wells, and the plate is placed on a plate mixer for 2 minutes. The reaction is started by adding [^32P]ATP, and the plate is incubated at 25° C. for 15 minutes. The reaction is terminated by addition of 0.1 mL of 20% trichloroacetic acid (TCA). The plate is kept at 4° C. for at least 1 hour to allow the substrate to precipitate. The wells are then washed 5 times with 0.2 mL of 10% TCA and ^32P incorporation is determined with a beta plate counter (Wallac Inc., Gaithersburg, Md.).

[2] = biological target: T2, PDGF-β receptor tyrosine kinase (PDGFr) (Mus musculus, UniProt P05622); test: PDGF Receptor Tyrosine Kinase Assay; type: biochemical; details: glutamate-tyrosine co-polymer substrate; for inhibition at 50 µM: at 50 μM compound, read-out: Inhibition of Tyrosine Kinases: % Inhibition at 50 μM PDGFr; for IC50: read-out: Inhibition of Tyrosine Kinases: IC50 in parenthesis PDGFr
T2 construct: amplify a fragment of DNA that codes for the intracellular tyrosine kinase domain; made in house; host or cells: SF9 insect cells (baculovirus); crude cell lysate used
Source text: as §3, §4

T1 sequence (P11362 478-767 limits assumed): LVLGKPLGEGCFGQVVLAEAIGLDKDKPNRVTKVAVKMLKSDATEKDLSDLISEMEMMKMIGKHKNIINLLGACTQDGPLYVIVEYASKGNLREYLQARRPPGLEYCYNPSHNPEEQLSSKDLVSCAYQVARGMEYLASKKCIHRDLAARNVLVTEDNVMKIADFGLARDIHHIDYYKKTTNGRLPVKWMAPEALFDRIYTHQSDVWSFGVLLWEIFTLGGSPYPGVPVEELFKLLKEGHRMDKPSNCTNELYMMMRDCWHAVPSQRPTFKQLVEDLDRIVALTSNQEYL
T2 sequence (P05622 599-961 limits assumed): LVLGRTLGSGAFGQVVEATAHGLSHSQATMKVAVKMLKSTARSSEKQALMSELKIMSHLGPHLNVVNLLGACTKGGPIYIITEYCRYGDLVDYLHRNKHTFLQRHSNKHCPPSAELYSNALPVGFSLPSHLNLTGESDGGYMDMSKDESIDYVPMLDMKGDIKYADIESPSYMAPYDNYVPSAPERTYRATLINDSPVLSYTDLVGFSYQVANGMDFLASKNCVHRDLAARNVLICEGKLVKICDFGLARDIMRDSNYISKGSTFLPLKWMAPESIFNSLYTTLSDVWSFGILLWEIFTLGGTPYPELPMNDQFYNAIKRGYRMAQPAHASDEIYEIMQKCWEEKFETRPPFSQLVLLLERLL
Sequence of cdk4/cyclinD (P11802 whole entry, species assumed): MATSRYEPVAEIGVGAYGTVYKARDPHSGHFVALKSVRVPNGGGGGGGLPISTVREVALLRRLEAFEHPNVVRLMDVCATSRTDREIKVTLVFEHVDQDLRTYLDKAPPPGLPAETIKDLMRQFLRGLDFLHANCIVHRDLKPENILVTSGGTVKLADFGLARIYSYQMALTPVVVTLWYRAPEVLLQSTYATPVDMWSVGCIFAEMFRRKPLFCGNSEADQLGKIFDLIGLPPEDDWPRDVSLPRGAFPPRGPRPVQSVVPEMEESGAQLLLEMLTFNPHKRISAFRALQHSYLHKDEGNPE
Sequence of cdk4/cyclinD (P24385 whole entry partner, species assumed): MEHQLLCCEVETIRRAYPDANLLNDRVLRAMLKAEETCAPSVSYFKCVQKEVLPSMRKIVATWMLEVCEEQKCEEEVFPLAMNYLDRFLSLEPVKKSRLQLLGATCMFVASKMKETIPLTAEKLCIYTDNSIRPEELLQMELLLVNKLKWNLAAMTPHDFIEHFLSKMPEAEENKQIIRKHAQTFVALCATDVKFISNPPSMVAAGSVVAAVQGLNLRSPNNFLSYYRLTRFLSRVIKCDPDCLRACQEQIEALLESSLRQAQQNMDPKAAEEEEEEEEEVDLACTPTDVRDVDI
Sequence of cdk1/cyclinB (P06493 whole entry, species assumed): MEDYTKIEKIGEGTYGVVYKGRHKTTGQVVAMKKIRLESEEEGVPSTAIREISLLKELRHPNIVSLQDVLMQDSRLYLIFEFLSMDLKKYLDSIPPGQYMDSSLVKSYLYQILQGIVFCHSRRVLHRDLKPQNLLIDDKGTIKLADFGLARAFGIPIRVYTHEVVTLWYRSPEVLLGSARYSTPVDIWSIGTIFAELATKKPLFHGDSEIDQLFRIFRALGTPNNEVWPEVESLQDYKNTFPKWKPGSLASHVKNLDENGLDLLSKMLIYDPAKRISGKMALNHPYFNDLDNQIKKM
Sequence of cdk1/cyclinB (P14635 whole entry partner, species assumed): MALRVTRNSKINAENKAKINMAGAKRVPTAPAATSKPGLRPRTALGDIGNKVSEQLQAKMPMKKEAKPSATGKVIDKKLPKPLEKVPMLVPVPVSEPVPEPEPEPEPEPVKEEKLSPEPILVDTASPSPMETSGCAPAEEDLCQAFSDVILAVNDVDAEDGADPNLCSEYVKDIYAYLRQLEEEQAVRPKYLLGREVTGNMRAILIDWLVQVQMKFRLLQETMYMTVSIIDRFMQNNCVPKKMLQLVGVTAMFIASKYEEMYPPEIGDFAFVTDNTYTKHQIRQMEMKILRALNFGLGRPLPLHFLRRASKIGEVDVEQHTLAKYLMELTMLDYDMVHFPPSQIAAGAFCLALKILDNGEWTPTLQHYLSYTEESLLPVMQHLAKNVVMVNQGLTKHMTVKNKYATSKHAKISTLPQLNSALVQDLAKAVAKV

IC50 (cdk1/cyclinB) [nM] | IC50 (cdk2/cyclinA) [nM] | inhibition at 50 µM [1] [%] | IC50 (cdk2/cyclinE) [nM] | IC50 (cdk4/cyclinD) [nM] | inhibition at 50 µM [2] [%] | IC50 [2] [nM] | IC50 [1] [nM] | melting point | SMILES
219 | 60 | 93.7 | 130 | 6 | 94.4 | 593 | – | – | CC(C)(C)NC(=O)Nc1ccc2cnc(Nc3ccc(N4CCNCC4)cc3)nc2n1 [Compound 1, 1-tert-Butyl-3-[2-(4-piperazin-1-yl-phenylamino)-pyrido[2,3-d]pyrimidin-7-yl]-urea]
27 | 10 | 89.8 | 20 | 5 | – | – | – | – | O=C(Nc1ccc2cnc(Nc3ccc(N4CCNCC4)cc3)nc2n1)NC1CCCCC1 [Compound 9, 1-Cyclohexyl-3-[2-(4-piperazin-1-yl-phenylamino)-pyrido[2,3-d]pyrimidin-7-yl]-urea]
159 | 92 | – | 125 | 11 | – | 131 | 284 | – | O=C(Nc1nc2nc(Nc3ccc(N4CCNCC4)cc3)ncc2cc1F)NC1CCCCC1 [Compound 11, 1-Cyclohexyl-3-[6-fluoro-2-(4-piperazin-1-yl-phenylamino)-pyrido[2,3-d]pyrimidin-7-yl]-urea]
75 | – | 19.5 | 300 | > 5000 | 17.5 | – | – | 230 °C (dec.) | Cc1cc(Nc2ncc3ccc(NC(=O)NC(C)(C)C)nc3n2)ccc1F [Compound 46, 1-tert-Butyl-3-[2-(4-fluoro-3-methyl-phenylamino)-pyrido[2,3-d]pyrimidin-7-yl]-urea]
> 5000 | > 5000 | 10.5 | > 5000 | > 5000 | – | – | – | > 250 °C | Cc1cc(Nc2ncc3ccc(NC(=O)Nc4ccc(Cl)cc4)nc3n2)ccc1F [Compound 47, 1-(4-Chloro-phenyl)-3-[2-(4-fluoro-3-methyl-phenylamino)-pyrido[2,3-d]pyrimidin-7-yl]-urea]
461 | 92 | 18.6 | 230 | 460 | – | – | – | 241 °C (dec.) | CC(C)(C)OC(=O)N1CCN(c2ccc(Nc3ncc4ccc(NC(=O)NC5CCCCC5)nc4n3)cc2)CC1 [Compound 80]
> 5000 | > 5000 | – | > 5000 | > 5000 | – | – | – | 185 °C (dec.) | O=C(Nc1ccc2cnc(Nc3ccc(N4CCNCC4)cc3)nc2n1)N(CCO)CCO [Compound 89, 1,1-Bis-(2-hydroxy-ethyl)-3-[2-(4-piperazin-1-yl-phenylamino)-pyrido[2,3-d]pyrimidin-7-yl]-urea]
6360 | 1110 | – | 1550 | > 5000 | – | – | – | 253 to 256 °C | O=C(NCCCN1CCOCC1)Nc1ccc2cnc(Nc3ccc(F)cc3)nc2n1 [Compound 96, 1-[2-(4-Fluoro-phenylamino)-pyrido[2,3-d]pyrimidin-7-yl]-3-(3-morpholin-4-yl-propyl)-urea]
862 | 278 | – | 345 | > 5000 | – | – | – | 238 to 240 °C | O=C(NCCO)Nc1ccc2cnc(Nc3ccc(F)cc3)nc2n1 [Compound 97, 1-[2-(4-Fluoro-phenylamino)-pyrido[2,3-d]pyrimidin-7-yl]-3-(2-hydroxy-ethyl)-urea]
442 | 157 | – | 140 | 1050 | – | – | – | 217 to 220 °C | NCCNC(=O)Nc1ccc2cnc(Nc3ccc(F)cc3)nc2n1 [Compound 98, 1-(2-Amino-ethyl)-3-[2-(4-fluoro-phenylamino)-pyrido[2,3-d]pyrimidin-7-yl]-urea]
1810 | 1010 | – | 410 | > 5000 | – | – | – | 251 to 255 °C | CN(C)CCNC(=O)Nc1ccc2cnc(Nc3ccc(F)cc3)nc2n1 [Compound 99, 1-(2-Dimethylamino-ethyl)-3-[2-(4-fluoro-phenylamino)-pyrido[2,3-d]pyrimidin-7-yl]-urea]
> 5000 | > 5000 | – | > 5000 | > 5000 | – | – | – | 221 to 225 °C (dec.) | CC(=O)N1CCN(c2ccc(Nc3ncc4ccc(NC(=O)NCCCN5CCOCC5)nc4n3)cc2)CC1 [Compound 103, 1-{2-[4-(4-Acetyl-piperazin-1-yl)-phenylamino]-pyrido[2,3-d]pyrimidin-7-yl}-3-(3-morpholin-4-yl-propyl)-urea]
> 5000 | > 5000 | – | > 5000 | 185 | – | – | – | 205 °C (dec.) | C[C@@H]1CN(c2ccc(Nc3ncc4cc(Cl)c(NC(=O)NC(C)(C)C)nc4n3)cc2)C[C@H](C)N1 [Compound 104, 1-tert-Butyl-3-{6-chloro-2-[4-(cis-3,5-dimethyl-piperazin-1-yl)-phenylamino]-pyrido[2,3-d]pyrimidin-7-yl}-urea]
> 5000 | > 5000 | – | > 5000 | > 5000 | – | – | – | 223 to 225 °C | CCCNC(=O)Nc1cc(C)c2cnc(Nc3ccc(N4CCNCC4)cc3)nc2n1 [Compound 111, 1-[5-Methyl-2-(4-piperazin-1-yl-phenylamino)-pyrido[2,3-d]pyrimidin-7-yl]-3-propyl-urea]
> 5000 | > 5000 | – | > 5000 | > 5000 | – | – | – | 208 °C (dec.) | Cc1c(F)c(NC(=O)NC(C)C)nc2nc(Nc3ccc(N4CCNCC4)cc3)ncc12 [Compound 114, 1-[6-Fluoro-5-methyl-2-(4-piperazin-1-yl-phenylamino)-pyrido[2,3-d]pyrimidin-7-yl]-3-isopropyl-urea]
> 5000 | > 5000 | – | 4000 | 76 | – | 81 | 61 | – | Cc1cc2cnc(Nc3ccc(N4C[C@@H](C)N[C@@H](C)C4)cc3)nc2nc1NC(=O)NC(C)(C)C [Compound 117, 1-tert-Butyl-3-{2-[4(cis-3,5-dimethyl-piperazin-1-yl)-phenylamino]-6-methyl-pyrido[2,3-d]pyrimidin-7-yl}-urea]
